Patent US10301284B2, “Therapeutic inhibitory compounds” (LifeSci Pharmaceuticals, Inc., priority 2016, dated 2019)
Read-outs that look alike come from different tables or passages of the source.

Target: human Plasma Kallikrein (Homo sapiens (Human), UniProt P03952)
Test: In vitro enzyme inhibition of human plasma kallikrein (Pro-Phe-Arg-AMC cleavage)
Format: biochemical
Method: The ability of the compounds disclosed herein to inhibit human plasma kallikrein activity was quantified according to the procedures below.
A 10 mM solution of the test compound was made in DMSO. This solution was serially diluted 1:5 in DMSO to yield 2000, 400, 80, 16, 3.2, 0.64, 0.128, 0.0256 and 0.00512 μM compound test solutions. A control tube containing only DMSO is included. 16 μL of each compound test solution was combined with 384 μL of assay buffer (50 mM Tris-HCl pH 7.5, 150 mM NaCl, 0.01% Triton X-100) to yield a “4× test compound buffer stock”.
Separately, a 40 nM solution of human Plasma Kallikrein (Abcam) and a 93.6 μM solution Pro-Phe-Arg-AMC (Bachem) were made using assay buffer. These solutions are hereby referred to as 4×hPK and 2×PFR-AMC, respectively.
60 μL of each 4× test compound buffer stock was combined with 60 μL of 4×hPK to yield 120 μL of “2× test compound buffer stock/2×hPK”. 50 μL was removed from this mixture and placed into duplicate wells on a Microfluor 1Black U-bottom microtiter plate (Thermo Scientific). This plate was incubated for 5 minutes at 37° C. To each well, 50 μL of pre-warmed 2×PFR-AMC was added to start the enzymatic reaction. Cleavage of PFR-AMC was monitored in a Biotek Synergy H4 reader set at 37° C. Readings are taken every 43 seconds for 1 hour. The highest mean velocity over 20 reads (˜15 minutes) is used to calculate the IC50. The IC50 is calculated using the Gen5 (Biotek Instruments).
The ability of the compounds listed in Table 2 to inhibit human plasma kallikrein activity was determined.

[1] = human plasma kallikrein, PFR-AMC substrate, 37° C., read-out: hPK IC50

human Plasma Kallikrein, sequence (P03952 391-638 limits assumed): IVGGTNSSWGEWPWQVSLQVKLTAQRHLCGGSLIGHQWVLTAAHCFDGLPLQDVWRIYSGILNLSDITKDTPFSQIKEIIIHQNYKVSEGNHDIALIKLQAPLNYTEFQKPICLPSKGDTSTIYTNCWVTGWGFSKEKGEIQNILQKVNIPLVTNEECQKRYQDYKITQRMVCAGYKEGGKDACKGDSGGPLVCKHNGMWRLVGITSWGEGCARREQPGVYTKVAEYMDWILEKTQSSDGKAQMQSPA
human Plasma Kallikrein, sequence (P03952 20-390 partner limits assumed): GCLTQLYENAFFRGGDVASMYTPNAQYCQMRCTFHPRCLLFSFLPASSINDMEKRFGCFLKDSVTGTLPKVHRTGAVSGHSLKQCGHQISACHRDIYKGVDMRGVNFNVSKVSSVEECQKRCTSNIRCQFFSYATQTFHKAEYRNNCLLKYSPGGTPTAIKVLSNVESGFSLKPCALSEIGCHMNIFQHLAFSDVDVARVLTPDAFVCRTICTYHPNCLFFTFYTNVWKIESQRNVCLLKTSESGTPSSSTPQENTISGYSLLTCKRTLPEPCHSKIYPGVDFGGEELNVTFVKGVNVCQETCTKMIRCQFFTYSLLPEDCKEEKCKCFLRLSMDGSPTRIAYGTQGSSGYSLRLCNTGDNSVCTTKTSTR

For `Cc1cc(N)nc(C)c1CNC(=O)c1cnc(C(=O)c2ccc3ncc(Cl)cc3c2)o1` [Example 80, N-((6-amino-2,4-dimethylpyridin-3-yl)methyl)-2-(3-chloroquinoline-6-carbonyl)oxazole-5-carboxamide], the IC50 [1] was over 10000 nM.

`O=C(NCc1ccc2[nH]cc(Cl)c2c1F)c1nnc(Cc2ccc3ncc(Cl)cc3c2)o1` [Example 43, N-((3-chloro-4-fluoro-1H-indol-5-yl)methyl)-5-((3-chloroquinolin-6-yl)methyl)-1,3,4-oxadiazole-2-carboxamide] was tested, and the IC50 [1] was 100 to 1000 nM.

For `Cc1cc(N)nc(C)c1CNC(=O)c1nn(Cc2ccc3ncc(Cl)cc3c2)c2c[nH]c(=O)cc12` [Example 124, N-((6-amino-2,4-dimethylpyridin-3-yl)methyl)-1-((3-chloroquinolin-6-yl)methyl)-5-oxo-5,6-dihydro-1H-pyrazolo[3,4-c]pyridine-3-carboxamide], the IC50 [1] was 100 to 1000 nM.

In the case of `Cc1cc(N)nc(C)c1CNC(=O)c1cn(Cc2cc(S(C)(=O)=O)c3ncc(Cl)cc3c2)nc1C#N` [Example 68, N-((6-amino-2,4-dimethylpyridin-3-yl)methyl)-1-((3-chloro-8-(methylsulfonyl)quinolin-6-yl)methyl)-3-cyano-1H-pyrazole-4-carboxamide], the IC50 [1] is reported as under 100 nM.

`Cc1cc(N)nc(C)c1CNC(=O)c1nn(Cc2ccc3ncc(Cl)cc3c2)c2ccnc(C#N)c12` [Example 76, N-((6-amino-2,4-dimethylpyridin-3-yl)methyl)-1-((3-chloroquinolin-6-yl)methyl)-4-cyano-1H-pyrazolo[4,3-c]pyridine-3-carboxamide] showed an IC50 [1] of under 100 nM.

`COc1ccc2c(n1)c(C(=O)NCc1c(C)cc(N)nc1C)nn2Cc1ccc2ncc(Cl)cc2c1` [Example 137, N-((6-amino-2,4-dimethylpyridin-3-yl)methyl)-1-((3-chloroquinolin-6-yl)methyl)-5-methoxy-1H-pyrazolo[4,3-b]pyridine-3-carboxamide] gave an IC50 of 100 to 1000 nM.

`N#Cc1nn(Cc2ccc3ncc(Cl)cc3c2)cc1C(=O)NCc1ccc2[nH]cc(Cl)c2c1F` [Example 47, N-((3-chloro-4-fluoro-1H-indol-5-yl)methyl)-1-((3-chloroquinolin-6-yl)methyl)-3-cyano-1H-pyrazole-4-carboxamide] gave an IC50 [1] of 100 to 1000 nM.

With `N#Cc1nn(Cc2ccc3ncc(Cl)cc3c2)cc1C(=O)NCc1ccc2c(N)nccc2c1` [Example 49, N-((1-aminoisoquinolin-6-yl)methyl)-1-((3-chloroquinolin-6-yl)methyl)-3-cyano-1H-pyrazole-4-carboxamide] the IC50 [1] was under 100 nM.

Molecule `Cc1cc(N)nc(C)c1CNC(=O)c1c2ccccc2nn1Cc1ccc2ncc(Cl)cc2c1` [Example 14, N-((6-amino-2,4-dimethylpyridin-3-yl)methyl)-2-((3-chloroquinolin-6-yl)methyl)-2H-indazole-3-carboxamide] has an IC50 [1] of over 10000 nM.

Work on `Cc1cc(N)nc(C)c1CNC(=O)c1cn(Cc2ccc3ncc(Cl)cc3c2)c2cc[nH]c(=O)c12` [Example 118, N-((6-amino-2,4-dimethylpyridin-3-yl)methyl)-1-((3-chloroquinolin-6-yl)methyl)-4-oxo-4,5-dihydro-1H-pyrrolo[3,2-c]pyridine-3-carboxamide] yielded an IC50 [1] of over 10000 nM.

In the case of `Cc1nc(N)ccc1CNC(=O)c1nnc(Cc2ccc3ncc(Cl)cc3c2)o1` [Example 79, N-((6-amino-2-methylpyridin-3-yl)methyl)-5-((3-chloroquinolin-6-yl)methyl)-1,3,4-oxadiazole-2-carboxamide], the IC50 [1] is reported as 100 to 1000 nM.

`N#Cc1nn(Cc2ccc3ncc(Cl)cc3c2)cc1C(=O)NCc1cc2c(Cl)c[nH]c2cc1F` [Example 51, N-((3-chloro-6-fluoro-1H-indol-5-yl)methyl)-1-((3-chloroquinolin-6-yl)methyl)-3-cyano-1H-pyrazole-4-carboxamide] was tested, and the IC50 [1] was 100 to 1000 nM.

With `Nc1nccc2cc(CNC(=O)c3nnc(Cc4ccc5ncc(Cl)cc5c4)o3)ccc12` [Example 46, N-((1-aminoisoquinolin-6-yl)methyl)-5-((3-chloroquinolin-6-yl)methyl)-1,3,4-oxadiazole-2-carboxamide] the IC50 [1] was 100 to 1000 nM.

With `Cc1cc(N)nc(C)c1CNC(=O)c1cn(C)c(Cc2ccc3ncc(Cl)cc3c2)n1` [Example 104, N-((6-amino-2,4-dimethylpyridin-3-yl)methyl)-2-((3-chloroquinolin-6-yl)methyl)-1-methyl-1H-imidazole-4-carboxamide] the IC50 [1] was over 10000 nM.

`O=C(NCc1n[nH]c2ccc(Cl)cc12)c1nnc(Cc2ccc3ncc(Cl)cc3c2)o1` [Example 42, N-((5-chloro-1H-indazol-3-yl)methyl)-5-((3-chloroquinolin-6-yl)methyl)-1,3,4-oxadiazole-2-carboxamide] showed an IC50 [1] of 100 to 1000 nM.

`Cc1cc(N)nc(C)c1CNC(=O)c1c2c(N)cccc2nn1Cc1ccc2ncc(Cl)cc2c1` [Example 140, 4-amino-N-((6-amino-2,4-dimethylpyridin-3-yl)methyl)-2-((3-chloroquinolin-6-yl)methyl)-2H-indazole-3-carboxamide] was tested, and the IC50 [1] was over 10000 nM.

With `Cc1cc(N)nc(C)c1CNC(=O)c1nn(Cc2ccc3ncc(Cl)cc3c2)c2cccc(N)c12` [Example 33, 4-amino-N-((6-amino-2,4-dimethylpyridin-3-yl)methyl)-1-((3-chloroquinolin-6-yl)methyl)-1H-indazole-3-carboxamide] the IC50 was 100 to 1000 nM.

`Cc1nc(N)ccc1CNC(=O)c1cnc(Cc2ccc3ncc(Cl)cc3c2)o1` [Example 90, N-((6-amino-2-methylpyridin-3-yl)methyl)-2-((3-chloroquinolin-6-yl)methyl)oxazole-5-carboxamide] showed an IC50 [1] of under 100 nM.

In the case of `Cc1cc(N)nc(C)c1CNC(=O)c1[nH]c(Cc2ccc3ncc(Cl)cc3c2)nc1Br` [Example 106, N-((6-amino-2,4-dimethylpyridin-3-yl)methyl)-4-bromo-2-((3-chloroquinolin-6-yl)methyl)-1H-imidazole-5-carboxamide], the IC50 [1] is reported as under 100 nM.

With `Cc1cc(N)nc(C)c1CNC(=O)c1nn(Cc2ccc3ncc(Cl)cc3c2)c2cnc(C#N)cc12` [Example 130, N-((6-amino-2,4-dimethylpyridin-3-yl)methyl)-1-((3-chloroquinolin-6-yl)methyl)-5-cyano-1H-pyrazolo[3,4-c]pyridine-3-carboxamide] the IC50 [1] was under 100 nM.

In the case of `N#Cc1nn(Cc2cc(F)c3ncc(Cl)cc3c2)cc1C(=O)NCc1n[nH]c2ccc(Cl)cc12` [Example 55, N-((5-chloro-1H-indazol-3-yl)methyl)-1-((3-chloro-8-fluoroquinolin-6-yl)methyl)-3-cyano-1H-pyrazole-4-carboxamide], the IC50 [1] is reported as 100 to 1000 nM.

`Cc1cc(N)nc(C)c1CNC(=O)c1cn(Cc2ccc3ncc(Cl)cc3c2)nc1C(C)O` (centres unmarked) [Example 94, N-((6-amino-2,4-dimethylpyridin-3-yl)methyl)-1-((3-chloroquinolin-6-yl)methyl)-3-(1-hydroxyethyl)-1H-pyrazole-4-carboxamide] was tested, and the IC50 [1] was under 100 nM.

Work on `Cc1cc(N)nc(C)c1CNC(=O)c1nc(Br)n(Cc2ccc3ncc(Cl)cc3c2)n1` [Example 100, N-((6-amino-2,4-dimethylpyridin-3-yl)methyl)-5-bromo-1-((3-chloroquinolin-6-yl)methyl)-1H-1,2,4-triazole-3-carboxamide] yielded an IC50 [1] of under 100 nM.

With `N#Cc1nn(Cc2cc(F)c3ncc(Cl)cc3c2)cc1C(=O)NCc1cnc2[nH]cc(Cl)c2c1` [Example 56, N-((3-chloro-1H-pyrrolo[2,3-b]pyridin-5-yl)methyl)-1-((3-chloro-8-fluoroquinolin-6-yl)methyl)-3-cyano-1H-pyrazole-4-carboxamide] the IC50 [1] was under 100 nM.

`Cc1cc(N)nc(C)c1CNC(=O)c1nc(Cc2ccc3ncc(Cl)cc3c2)nn1C` [Example 99, N-((6-amino-2,4-dimethylpyridin-3-yl)methyl)-3-((3-chloroquinolin-6-yl)methyl)-1-methyl-1H-1,2,4-triazole-5-carboxamide] was tested, and the IC50 [1] was under 100 nM.

For `Cc1cc(N)nc(C)c1CNC(=O)c1nn(Cc2ccc3ncc(Cl)cc3c2)c2ccnc(Cl)c12` [Example 119, N-((6-amino-2,4-dimethylpyridin-3-yl)methyl)-4-chloro-1-((3-chloroquinolin-6-yl)methyl)-1H-pyrazolo[4,3-c]pyridine-3-carboxamide], the IC50 was 100 to 1000 nM.

`CCOC(=O)c1nc(C(=O)NCc2c(C)cc(N)nc2C)nn1Cc1ccc2ncc(Cl)cc2c1` [Example 142, ethyl 3-(((6-amino-2,4-dimethylpyridin-3-yl)methyl)carbamoyl)-1-((3-chloroquinolin-6-yl)methyl)-1H-1,2,4-triazole-5-carboxylate] gave an IC50 [1] of over 10000 nM.

Molecule `N#Cc1nn(Cc2ccc3ncc(Cl)cc3c2)cc1C(=O)NCc1cnc2[nH]cc(Cl)c2c1` [Example 50, N-((3-chloro-1H-pyrrolo[2,3-b]pyridin-5-yl)methyl)-1-((3-chloroquinolin-6-yl)methyl)-3-cyano-1H-pyrazole-4-carboxamide] has an IC50 [1] of 100 to 1000 nM.

`Cc1cc(N)nc(C)c1CNC(=O)c1cn(Cc2ccc3ncc(Cl)cc3c2)c2ncnc(C#N)c12` [Example 136, N-((6-amino-2,4-dimethylpyridin-3-yl)methyl)-7-((3-chloroquinolin-6-yl)methyl)-4-cyano-7H-pyrrolo[2,3-d]pyrimidine-5-carboxamide] was tested, and the IC50 was 100 to 1000 nM.
